Reference: US20050137194A1, “Combination of selected opioids with other active compounds for treatment of urinary incontinence” (Gruenenthal GmbH, priority 2002, published 2005)
Like-named read-outs stand apart in the source and are kept apart here. Marks after values point to notes of the source that are not given here.

Experiments:
naive female rats = test: Cystometry test system on narcotized naive rats (suppression of spontaneous bladder contractions); assay type: in vivo, rat; conditions: i.v. cumulative; for minimal effective dose: Rattus norvegicus, iv, 10 min, read-out: Lowest dose at which for the first time contractions were absent over a period of 10 minutes
Description: The cystometric investigation on naive female rats was carried out in accordance with the method of Kimura et al. (Kimura et al., 1996, Int. J. Urol. 3: 218-227). The abdomen of narcotized, ventilated rats is opened up and the ureter is ligated. The urine is drained from the kidneys. A catheter is inserted into the bladder and fixed. […] After stable starting values have been reached, the test substance is administered i.v. in a cumulative manner. Influencing of the bladder function manifests itself via suppression of the spontaneous contractions. In this context, the absence of contractions over a period of 10 min is a parameter for the suppression.
With all the substances listed here, a suppression of the spontaneous contractions was measurable in the rats, table 3 showing the mean of the lowest dose of at least 2 experiments at which for the first time contractions were absent over a period of 10 minutes.
With all the substances listed here, a suppression of the spontaneous contractions was measurable in the rats, table 4 showing the mean of the lowest dose of at least 2 experiments at which for the first time contractions were absent over a period of 10 minutes.
With all the substances listed here, a suppression of the spontaneous contractions was measurable in the rats, table 5 showing the mean of the lowest dose of at least 2 experiments at which for the first time contractions were absent over a period of 10 minutes. […]

[1] = tested on: naive, female Sprague-Dawley rats; test: Cystometry test system on conscious naive rats; conditions: for action on bladder regulation (in words): conscious naive rats, i.v.
Description: Three days after implantation of bladder and venous catheters, the animals were investigated in the freely mobile, conscious state. The bladder catheter was connected to a pressure transducer and an injection pump. The animals were placed in metabolism cages which allowed measurement of the volume of urine. Physiological saline solution was infused into the emptied bladder (10 ml/h) and the bladder pressure and micturition volume were recorded continuously. After a stabilization phase, a 20 minute phase, which was characterized by normal, reproducible micturition cycles, was recorded. The following parameters, inter alia, were determined: • threshold pressure (TP, bladder pressure immediately before micturition), • bladder capacity (BC, residual volume after preceding micturition plus volume of the infused solution during the filling phase), • intercontraction interval (ICI, the interval of time between micturitions).

rat = rat model of rhythmic bladder contractions; Nippon-Shinyaku, WO 98/46216; cited from earlier work
[2] = tested on: female Sprague-Dawley rats; test: Cystometry test system on conscious damaged rats (oxyhaemoglobin-induced bladder hyperactivity, urgency incontinence model)
Description: This model simulates the urgency incontinence in an animal model; the oxyhaemoglobin (OxyHb) employed induces a bladder hyperactivity.
Three days after implantation of bladder and venous catheters, the animals were investigated in the freely mobile, conscious state. The bladder catheter was connected to a pressure transducer and an injection pump. The animals were placed in metabolism cages which allowed measurement of the volume of urine. Physiological saline solution was infused into the emptied bladder (10 ml/h) and the bladder pressure and micturition volume were recorded continuously. After a stabilization phase, a 20 minute phase, which was characterized by normal, reproducible micturition cycles, was recorded. The following parameters, inter alia, were determined: • threshold pressure (TP, bladder pressure immediately before micturition), • bladder capacity (BC, residual volume after preceding micturition plus volume of the infused solution during the filling phase), • intercontraction interval (ICI, the interval of time between micturitions) • micturition pressure (MP, maximum bladder pressure during a micturition).
After three reproducible micturition cycles had been recorded as the pre-value, 2.5×10^−4 M oxyhemoglobin in the vehicle=0.9% NaCl were infused into the bladder. The action on the cystometric parameters was recorded for about 20 minutes. At the action maximum the mean of 3 micturition cycles was determined and shown as a percentage change compared with the pre-value (table 8).

[3] = 1.0 mg/kg iv, action maximum, mean of 3 micturition cycles
[4] = mean of at least 3 independent experiments
[5] = after OxyHb 2.5 × 10^−4 M, n = 5, average ± standard deviation
[6] = pre-value before OxyHb 2.5 × 10^−4 M, n = 5, average ± standard deviation

Question: With `CC[C@](O)(c1ccc(Cl)c(Cl)c1)[C@H](C)CN(C)C.Cl` (racemic) [Compound 3, (2RS,3RS)-3-(3,4-dichlorophenyl)-1-dimethylamino-2-methyl-pentan-3-ol, hydrochloride] as the molecule, how does the “Lowest dose at which for the first time contractions were absent over a period of 10 minutes” value (naive female rats; mean of at least 2 experiments) read?
Answer: The value was 23.3 mg/kg.

Question: With `CC[C@](O)(c1cccc(C(F)F)c1)[C@H](C)CN(C)C.Cl` (racemic) [Compound 4, (2RS,3RS)-3-(3-difluoromethyl-phenyl)-1-dimethylamino-2-methyl-pentan-3-ol, hydrochloride] as the molecule, how does the minimal effective dose (naive female rats; mean of at least 2 experiments) read?
Answer: The minimal effective dose was 1.7 mg/kg.

Question: With `CC[C@](O)(c1cccc(SC)c1)[C@H](C)CN(C)C.Cl` (racemic) [Compound 5, (2RS,3RS)-1-dimethylamino-2-methyl-3-(3-methylsulfanyl-phenyl)-pentan-3-ol, hydrochloride] as the molecule, how does the minimal effective dose (naive female rats; mean of at least 2 experiments) read?
Answer: Its minimal effective dose is 2.3 mg/kg.

Question: With `COc1cccc(C(O)(CCN(C)C)C(C)(C)C)c1.Cl` (racemic) [Compound 6, (3RS)-1-dimethylamino-3-(3-methoxy-phenyl)-4,4-dimethyl-pentan-3-ol, hydrochloride] as the molecule, how does the “Lowest dose at which for the first time contractions were absent over a period of 10 minutes” value (naive female rats; mean of at least 2 experiments) read?
Answer: Its value is 16.7 mg/kg.

Question: With `CCC(O)(c1cccc(O)c1)C(C)CN(C)C.Cl` (racemic) [Compound 7, (2RS,3RS)-3-(3-dimethylamino-1-ethyl-1-hydroxy-2-methyl-propyl)-phenol, hydrochloride] as the molecule, how does the “BC bladder capacity, change relative to the pre-value” ([1]; 0.3 mg/kg iv) read?
Answer: Its value is “+32% *”.

Question: What about the “ICI intercontraction interval, change relative to the pre-value” ([1]; 0.3 mg/kg iv) of the same molecule?
Answer: The value was “+28% *”.

Question: What about the “TP threshold pressure, change relative to the pre-value” ([1]; 0.3 mg/kg iv) of the same molecule?
Answer: The value was “+95% **”.

Question: Which results are given for `C[C@H](CN(C)C)[C@@](C)(O)c1cccc(O)c1.Cl` (racemic) [Compound 8, (1RS,2RS)-3-(3-dimethylamino-1-hydroxy-1,2-dimethyl-propyl)-phenol, hydrochloride]?
Answer: BC bladder capacity, change relative to the pre-value [1, 3]: +7%; ICI intercontraction interval, change relative to the pre-value [1, 3]: +14.4%; TP threshold pressure, change relative to the pre-value [1, 3]: +60% **

Question: For `CCC(O)(c1cccc(OC)c1)C1(CN(C)C)CCCCC1.Cl` (racemic) [Compound 13, (1RS)-1-(1-dimethylaminomethyl-cyclohexyl)-1-(3-methoxy-phenyl)-propan-1-ol, hydrochloride], which minimal effective dose (naive female rats; mean of at least 2 experiments) is on record?
Answer: The minimal effective dose was 20 mg/kg.

Question: With `CC[C@](O)(c1ccc(Cl)cc1)[C@H](C)CN(C)C.Cl` (racemic) [Compound 14, (2RS,3RS)-3-(4-chlorophenyl)-1-dimethylamino-2-methyl-pentan-3-ol, hydrochloride] as the molecule, how does the minimal effective dose (naive female rats; mean of at least 2 experiments) read?
Answer: Its minimal effective dose is 20 mg/kg.

Question: Which results are given for `COc1cccc(C2(O)CCCCC2CN(C)C)c1` (racemic) [Compound 23, rac-tramadol, reference compound]?
Answer: minimal effective dose (naive female rats; mean of at least 2 experiments): 5.3 mg/kg; effect on bladder function (in words) (rat): positive effect on bladder function

Question: Which results are given for `COc1cccc([C@@]2(O)C[C@H](O)CC[C@@H]2CN(C)C)c1.Cl` (racemic) [Compound 24, (1RS,3RS,6RS)-6-dimethylaminomethyl-1-(3-methoxy-phenyl)-cyclohexane-1,3-diol, hydrochloride]?
Answer: BC bladder capacity, change relative to the pre-value [1, 3]: −8.0%; ICI intercontraction interval, change relative to the pre-value [1, 3]: −15% **; TP threshold pressure, change relative to the pre-value [1, 3]: +44.0% ***; BC bladder capacity, change relative to the pre-value ([1]; 3.0 mg/kg iv): −16.0% *; ICI interconnection interval, change relative to the pre-value ([1]; 3.0 mg/kg iv): −16% *; TP threshold pressure, change relative to the pre-value ([1]; 3.0 mg/kg iv): +94.0% **; BC bladder capacity, change relative to the pre-value ([1]; 5.0 mg/kg iv): −26.0% *; ICI interconnection interval, change relative to the pre-value ([1]; 5.0 mg/kg iv): −21.2%; TP threshold pressure, change relative to the pre-value ([1]; 5.0 mg/kg iv): +69.0% *

Question: With `CN(C)C[C@H]1CC[C@@H](O)C[C@]1(O)c1cccc(O)c1.Cl` (racemic) [Compound 26, (1RS,3RS,6RS)-6-dimethylaminomethyl-1-(3-hydroxy-phenyl)-cyclohexane-1,3-diol, hydrochloride] as the molecule, how does the “BC bladder capacity, change relative to the pre-value” ([1]; 3.0 mg/kg iv) read?
Answer: The value was “+29.0% *”.

Question: And the “ICI interconnection interval, change relative to the pre-value” ([1]; 3.0 mg/kg iv)?
Answer: Its value is “+27.0% *”.

Question: What about the “TP threshold pressure, change relative to the pre-value” ([1]; 3.0 mg/kg iv) of the same molecule?
Answer: Its value is “+86.0% ***”.

Question: With `COc1cccc([C@@]2(O)C[C@@H](O)CC[C@@H]2CN(C)C)c1.Cl` (racemic) [Compound 27, (1RS,3SR,6RS)-6-dimethylaminomethyl-1-(3-methoxy-phenyl)-cyclohexane-1,3-diol, hydrochloride] as the molecule, how does the minimal effective dose (naive female rats; mean of at least 2 experiments) read?
Answer: Its minimal effective dose is 115 mg/kg.

Question: For `CN(C)C[C@H]1CC[C@@H](C(F)(F)F)C[C@]1(O)c1cccc(O)c1.Cl` (racemic) [Compound 29, (1RS,2RS,5RS)-3-(2-dimethylaminomethyl-1-hydroxy-5-trifluoromethyl-cyclohexyl)-phenol, hydrochloride], which minimal effective dose (naive female rats; mean of at least 2 experiments) is on record?
Answer: The minimal effective dose was 23.3 mg/kg.

Question: For `CC[C@](O)(c1cccc(OC)c1)[C@H](C)CN(C)C.Cl` [Compound 2, (+)-(2R,3R)-1-dimethylamino-3-(3-methoxy-phenyl)-2-methyl-pentan-3-ol, hydrochloride], which “action on bladder regulation (in words)” value [1] is on record?
Answer: Its value is “effectively active”.

Question: What does the source list for `C[C@H](CN(C)C)[C@@](C)(O)c1cccc(O)c1.Cl` [Compound 9, (+)-(1R,2R)-3-(3-dimethylamino-1-hydroxy-1,2-dimethyl-propyl)-phenol, hydrochloride]?
Answer: BC bladder capacity, change relative to the pre-value ([1]; 0.5 mg/kg iv): +50% **; ICI intercontraction interval, change relative to the pre-value ([1]; 0.5 mg/kg iv): +21% *; TP threshold pressure, change relative to the pre-value ([1]; 0.5 mg/kg iv): +56% **

Question: For `C[C@H](CN(C)C)[C@@](C)(O)c1cccc(O)c1.Cl` [Compound 10, (+)-(1R,2R)-3-(3-dimethylamino-1-hydroxy-1,2-dimethyl-propyl)-phenol, hydrochloride], which minimal effective dose (naive female rats; mean of at least 2 experiments) is on record?
Answer: Its minimal effective dose is 0.2 mg/kg.

Question: Which minimal effective dose (naive female rats; mean of at least 2 experiments) does the source give for `CC[C@](OC(C)=O)(c1cccc(OC)c1)[C@H](C)CN(C)C.Cl` [Compound 12, (+)-(1R,2R)-acetic acid 3-dimethylamino-1-ethyl-1-(3-methoxy-phenyl)-2-methyl-propyl ester, hydrochloride] here?
Answer: The minimal effective dose was 30 mg/kg.

Question: Which minimal effective dose (naive female rats; mean of at least 2 experiments) does the source give for `CN(C)C[C@H]1CCCC[C@]1(F)c1cccc(O)c1.Cl` [Compound 18, (+)-(1R,2R)-3-(2-dimethylaminomethyl-1-fluoro-cyclohexyl)-phenol, hydrochloride] here?
Answer: Its minimal effective dose is 0.2 mg/kg.

Question: For `CN(C)C[C@H]1CCCC[C@@H]1c1cccc(O)c1.Cl` [Compound 19, (+)-(1S,2S)-3-(2-dimethylaminomethyl-cyclohexyl)-phenol, hydrochloride], which minimal effective dose (naive female rats; mean of at least 2 experiments) is on record?
Answer: The minimal effective dose was 0.1 mg/kg.

Question: Which minimal effective dose (naive female rats; mean of at least 2 experiments) does the source give for `CN(C)C[C@@H]1CCCC[C@H]1c1cccc(O)c1.Cl` [Compound 20, (−)-(1R,2R)-3-(2-dimethylaminomethyl-cyclohexyl)-phenol, hydrochloride] here?
Answer: The minimal effective dose was 0.5 mg/kg.

Question: Which “action on bladder regulation (in words)” value [1] does the source give for `CC[C@@](O)(c1cccc(OC)c1)[C@@H](C)CN(C)C.Cl` [Compound 21, (−)-(2S,3S)-1-dimethylamino-3-(3-methoxy-phenyl)-2-methyl-pentan-3-ol, hydrochloride] here?
Answer: The value was “does not contribute to the action”.

Question: What does the source list for `COc1cccc([C@@]2(O)C[C@H](O)CC[C@@H]2CN(C)C)c1.Cl` [Compound 25, (+)-(1R,3R,6R)-6-dimethylaminomethyl-1-(3-methoxy-phenyl)-cyclohexane-1,3-diol, hydrochloride]?
Answer: BC bladder capacity, change relative to the pre-value ([1]; 1.5 mg/kg iv): −14.0% *; ICI interconnection interval, change relative to the pre-value ([1]; 1.5 mg/kg iv): −9.0 * %; TP threshold pressure, change relative to the pre-value ([1]; 1.5 mg/kg iv): +62.0% *

Question: With `C[C@H]1CC[C@H](CN(C)C)[C@@](O)(c2cccc(O)c2)C1.Cl` [Compound 28, (+)-(1R,2R,5S)-3-(2-dimethylaminomethyl-1-hydroxy-5-methyl-cyclohexyl)-phenol, hydrochloride] as the molecule, how does the minimal effective dose (naive female rats; mean of at least 2 experiments) read?
Answer: Its minimal effective dose is 16.7 mg/kg.

Question: Which minimal effective dose (naive female rats; [4]) does the source give for `CCC1(c2cccc(O)c2)CCCCN(C)C1` (centres unmarked) [meptazinol, reference compound] here?
Answer: The minimal effective dose was 1 mg/kg.

Question: Which minimal effective dose (naive female rats; [4]) does the source give for `CCOC(=O)C1(c2ccccc2)CCC=CC1N(C)C` (centres unmarked) [tilidine, reference compound] here?
Answer: Its minimal effective dose is 0.5 mg/kg.

Question: Which results are given for oxyhaemoglobin [OxyHb]?
Answer: BC bladder capacity, change (diff) in comparison with the pre-value ([2]; OxyHb 2.5 × 10^−4 M alone): diff: −29.3%; ICI intercontraction interval, change (diff) in comparison with the pre-value ([2]; OxyHb 2.5 × 10^−4 M alone): diff: −32.9%; MP micturition pressure, change (diff.) in comparison with the pre-value ([2]; OxyHb 2.5 × 10^−4 M alone): diff.: +64.4%; TP threshold pressure, change (diff.) in comparison with the pre-value ([2]; OxyHb 2.5 × 10^−4 M alone): diff.: +12.8%; BC bladder capacity, after (a) [2, 5]: a: 0.65 ± 0.06 ml; ICI intercontraction interval, after (a) [2, 5]: a: 3.33 ± 0.18 min; MP micturition pressure, after (a) [2, 5]: a: 97 ± 5 cm H2O; TP threshold pressure, after (a) [2, 5]: a: 9.84 ± 1.56 cm H2O; BC bladder capacity, before (b) [2, 6]: b: 0.92 ± 0.10 ml; ICI intercontraction interval, before (b) [2, 6]: b: 4.96 ± 0.33 min; MP micturition pressure, before (b) [2, 6]: b: 59 ± 8 cm H2O; TP threshold pressure, before (b) [2, 6]: b: 8.72 ± 1.31 cm H2O
